Test results reported in ChEMBL document CHEMBL5154794, “Design, synthesis and biological evaluation of protease inhibitors containing morpholine cores with remarkable potency against both HIV-1 subtypes B and C” (Eur J Med Chem, 2022).

Columns and labels:
[1] = target: Human immunodeficiency virus type 1 protease (Human immunodeficiency virus 1, UniProt Q72874); assay: Inhibition of HIV-1 protease using Arg-Glu (EDANS)-Ser-Gln-Asn-Tyr-Pro-lle-Val-Gln-Lys (DABCYL)-Arg as substrate preincubated for 20 to 30 mins followed by substrate addition and measured by FRET assay
[2] = Cytotoxicity against human HEK-293T cells after 24 hrs by CCK-8 assay; assay type: toxicity, cell-based
HIV-1 protease = assay: Selectivity index, ratio IC50 for cytotoxicity against human HEK-293T cells over IC50 for inhibition of HIV-1 protease; assay type: toxicity, cell-based; conditions: read-out: Ratio CC50/IC50
[3] = test system: Human immunodeficiency virus 1; assay: Antiviral activity against HIV1 NL4-3 Env-deficient VSV-G pseudotyped virus infected in human SUP-T1 cells assessed as inhibition of late stage viral production at 10 uM measured after 48 hrs by luciferase assay relative to control; assay type: functional; conditions: Human immunodeficiency virus 1, NL4-3, SUP-T1
[4] = test system: Human immunodeficiency virus 1; assay: Antiviral activity against HIV1 subtype C isolate ZM246; assay type: functional, organism-based; conditions: Human immunodeficiency virus 1, subtype C isolate ZM246
[5] = test system: Human immunodeficiency virus 1; assay: Antiviral activity against DRV resistant HIV1; assay type: functional, organism-based
[6] = test system: Human immunodeficiency virus 1; assay: Antiviral activity against HIV1 NL4-3 Env-deficient VSV-G pseudotyped virus infected in human SUP-T1 cells assessed as inhibition of late stage viral production at 100 nM measured after 48 hrs by luciferase assay relative to control; assay type: functional; conditions: Human immunodeficiency virus 1, NL4-3, SUP-T1
[7] = test system: Human immunodeficiency virus 1; assay: Antiviral activity against wild type HIV1 NL4-3; assay type: functional, organism-based; conditions: Human immunodeficiency virus 1, NL4-3
[8] = test system: Human immunodeficiency virus 1; assay: Antiviral activity against HIV1 subtype C isolate Indie; assay type: functional, organism-based; conditions: Human immunodeficiency virus 1, subtype C isolate Indie
[9] = Selectivity index, ratio EC50 for Antiviral activity against DRV resistant HIV1 over EC50 for wild type HIV1 NL4-3

CNc1ccc(S(=O)(=O)N(CC(C)C)C[C@@H](O)[C@H](Cc2ccccc2)NC(=O)[C@H]2CNCCO2)cc1
IC50 [1]: 90.2 nM
CC50 at 24 h [2]: > 200 µM
selectivity ratio (HIV-1 protease): > 2220

COc1ccc(S(=O)(=O)N(CC(C)C)C[C@@H](O)[C@H](Cc2ccccc2)NC(=O)OC[C@H]2CNCCO2)cc1
IC50 [1]: 0.67 nM
CC50 at 24 h [2]: > 200 µM
selectivity ratio (HIV-1 protease): > 299000
inhibition at 10 µM [3]: 100%

COc1ccc(S(=O)(=O)N(CC(C)C)C[C@@H](O)[C@H](Cc2ccccc2)NS(=O)(=O)N2CCOCC2)cc1
IC50 [1]: 19.2 nM
CC50 at 24 h [2]: 60.3 µM
selectivity ratio (HIV-1 protease): 3140

CC(C)CN(C[C@@H](O)[C@H](Cc1ccccc1)NC(=O)[C@@H]1COCCN1)S(=O)(=O)c1ccc(N)cc1
IC50 [1]: 31.3 nM
CC50 at 24 h [2]: > 200 µM
selectivity ratio (HIV-1 protease): > 6390

CC(C)CN(C[C@@H](O)[C@H](Cc1ccccc1)NC(=O)O[C@H]1CO[C@H]2OCC[C@H]21)S(=O)(=O)c1ccc(N)cc1
EC50 [4]: 2.01 nM
EC50 [5]: 110 nM
inhibition at 0.1 µM [6]: 100%
CC50 at 24 h [2]: > 200 µM
EC50 [7]: 1.9 nM
EC50 [8]: 1.26 nM

CC(C)CN(C[C@@H](O)[C@H](Cc1ccccc1)NC(=O)[C@H]1CNCCO1)S(=O)(=O)c1ccc(O)cc1
IC50 [1]: 5.65 nM
CC50 at 24 h [2]: > 200 µM
selectivity ratio (HIV-1 protease): > 35400

CC(C)CN(C[C@@H](O)[C@H](Cc1ccccc1)NC(=O)[C@@H]1COCCN1)S(=O)(=O)c1ccc(NO)cc1
IC50 [1]: 2.99 nM
CC50 at 24 h [2]: 145 µM
selectivity ratio (HIV-1 protease): 48400
inhibition at 10 µM [3]: 93%

CC(C)CN(C[C@@H](O)[C@H](Cc1ccccc1)NC(=O)[C@@H]1COCCN1C)S(=O)(=O)c1ccc(NO)cc1
IC50 [1]: 26.7 nM
CC50 at 24 h [2]: 94.6 µM
selectivity ratio (HIV-1 protease): 3550
inhibition at 10 µM [3]: 78%

COc1ccc(S(=O)(=O)N(CC(C)C)C[C@@H](O)[C@H](Cc2ccccc2)NC(=O)[C@@H]2COCCN2)cc1
IC50 [1]: 0.39 nM
EC50 [5]: 3190 nM
Ratio EC50 [9]: 9
CC50 at 24 h [2]: > 200 µM
EC50 [7]: 340 nM
selectivity ratio (HIV-1 protease): > 513000
inhibition at 10 µM [3]: 100%

CC(C)CN(C[C@@H](O)[C@H](Cc1ccccc1)NC(=O)CN1CCS(=O)(=O)CC1)S(=O)(=O)c1ccc(O)cc1
IC50 [1]: 10.6 nM
CC50 at 24 h [2]: > 200 µM
selectivity ratio (HIV-1 protease): > 18800

CC(C)CN(C[C@@H](O)[C@H](Cc1ccccc1)NC(=O)OC[C@H]1CNCCO1)S(=O)(=O)c1ccc(O)cc1
IC50 [1]: 1.9 nM
CC50 at 24 h [2]: > 200 µM
selectivity ratio (HIV-1 protease): > 105000

COc1ccc(S(=O)(=O)N(CC(C)C)C[C@@H](O)[C@H](Cc2ccccc2)NC(=O)[C@@H]2COCCN2C)cc1
IC50 [1]: 4.83 nM
EC50 [5]: 1990 nM
Ratio EC50 [9]: 6
CC50 at 24 h [2]: 132 µM
EC50 [7]: 350 nM
selectivity ratio (HIV-1 protease): 27300
inhibition at 10 µM [3]: 100%

CC(C)CN(C[C@@H](O)[C@H](Cc1ccccc1)NC(=O)[C@@H]1COCCN1)S(=O)(=O)c1ccc(O)cc1
EC50 [4]: 13.6 nM
IC50 [1]: 0.09 nM
EC50 [5]: 1290 nM
Ratio EC50 [9]: 14
CC50 at 24 h [2]: > 200 µM
EC50 [7]: 89 nM
selectivity ratio (HIV-1 protease): > 2.22e+06
inhibition at 10 µM [3]: 100%
EC50 [8]: 8.23 nM

CC(C)CN(C[C@@H](O)[C@H](Cc1ccccc1)NC(=O)CN1CCS(=O)(=O)CC1)S(=O)(=O)c1ccc(NO)cc1
IC50 [1]: 47.4 nM
CC50 at 24 h [2]: > 200 µM
selectivity ratio (HIV-1 protease): > 4220

CC(C)CN(C[C@@H](O)[C@H](Cc1ccccc1)NC(=O)OC[C@H]1CN(C)CCO1)S(=O)(=O)c1ccc(NO)cc1
IC50 [1]: 13.9 nM
CC50 at 24 h [2]: > 200 µM
selectivity ratio (HIV-1 protease): > 14400

CNc1ccc(S(=O)(=O)N(CC(C)C)C[C@@H](O)[C@H](Cc2ccccc2)NC(=O)[C@@H]2COCCN2)cc1
IC50 [1]: 95.8 nM
CC50 at 24 h [2]: > 200 µM
selectivity ratio (HIV-1 protease): > 2090

CC(C)CN(C[C@@H](O)[C@H](Cc1ccccc1)NC(=O)[C@@H]1COCCN1)S(=O)(=O)c1ccc(S(C)(=O)=O)cc1
IC50 [1]: 454 nM
CC50 at 24 h [2]: > 200 µM
selectivity ratio (HIV-1 protease): > 440

COc1ccc(S(=O)(=O)N(CC(C)C)C[C@@H](O)[C@H](Cc2ccccc2)NC(=O)[C@H]2CNCCO2)cc1
IC50 [1]: 11.7 nM
CC50 at 24 h [2]: > 200 µM
selectivity ratio (HIV-1 protease): > 17200

CC(C)CN(C[C@@H](O)[C@H](Cc1ccccc1)NC(=O)[C@H]1CNCCO1)S(=O)(=O)c1ccc(N)cc1
IC50 [1]: 54.3 nM
CC50 at 24 h [2]: > 200 µM
selectivity ratio (HIV-1 protease): > 3680

CC(C)CN(C[C@@H](O)[C@H](Cc1ccccc1)NC(=O)OC[C@H]1CN(C)CCO1)S(=O)(=O)c1ccc(O)cc1
IC50 [1]: 1.54 nM
CC50 at 24 h [2]: > 200 µM
selectivity ratio (HIV-1 protease): > 130000

CC(C)CN(C[C@@H](O)[C@H](Cc1ccccc1)NC(=O)OC[C@H]1CNCCO1)S(=O)(=O)c1ccc(N)cc1
IC50 [1]: 19.7 nM
CC50 at 24 h [2]: 200 µM
selectivity ratio (HIV-1 protease): > 10100

CC(C)CN(C[C@@H](O)[C@H](Cc1ccccc1)NC(=O)[C@H]1CNCCO1)S(=O)(=O)c1ccc(NO)cc1
IC50 [1]: 34 nM
CC50 at 24 h [2]: 11.2 µM
selectivity ratio (HIV-1 protease): 328

CC(C)CN(C[C@@H](O)[C@H](Cc1ccccc1)NC(=O)[C@@H]1COCCN1C)S(=O)(=O)c1ccc(O)cc1
IC50 [1]: 1.2 nM
EC50 [5]: 2200 nM
Ratio EC50 [9]: 13
CC50 at 24 h [2]: 135 µM
EC50 [7]: 170 nM
selectivity ratio (HIV-1 protease): 113000
inhibition at 10 µM [3]: 100%

COc1ccc(S(=O)(=O)N(CC(C)C)C[C@@H](O)[C@H](Cc2ccccc2)NC(=O)CN2CCS(=O)(=O)CC2)cc1
IC50 [1]: 24.3 nM
CC50 at 24 h [2]: > 200 µM
selectivity ratio (HIV-1 protease): > 8230

CC(C)CN(C[C@@H](O)[C@H](Cc1ccccc1)NS(=O)(=O)N1CCOCC1)S(=O)(=O)c1ccc(N)cc1
IC50 [1]: 35.2 nM
CC50 at 24 h [2]: 101 µM
selectivity ratio (HIV-1 protease): 2860

COc1ccc(S(=O)(=O)N(CC(C)C)C[C@@H](O)[C@H](Cc2ccccc2)NC(=O)OC[C@H]2CN(C)CCO2)cc1
IC50 [1]: 2.25 nM
CC50 at 24 h [2]: > 200 µM
selectivity ratio (HIV-1 protease): > 88900
inhibition at 10 µM [3]: 100%

CC(C)CN(C[C@@H](O)[C@H](Cc1ccccc1)NC(=O)OC[C@H]1CNCCO1)S(=O)(=O)c1ccc(NO)cc1
IC50 [1]: 2.45 nM
CC50 at 24 h [2]: > 200 µM
selectivity ratio (HIV-1 protease): > 81600
